# Data published in the NIST ThermoML archive (doi:10.1021/je500762n).
# ± gives the expanded uncertainty stated by the source.
# Assays:
# [1] = Molar enthalpy of transition or fusion; settings: Crystal; DSC
# [2] = Crystal; DTA
SMILES,Molar enthalpy of transition or fusion [1],Normal melting temperature [2]
CCCCCCC[n+]1csc2ccccc21.F[P-](F)(F)(F)(F)F [3-heptylbenzo[d]thiazol-3-ium hexafluorophosphate],4.8 ± 0.167 kcal/mol,86.2 ± 0.5 °C
CCCCCC[n+]1csc2ccccc21.F[P-](F)(F)(F)(F)F [N-hexylbenzothiazolium hexafluorophosphate],5.62 ± 0.167 kcal/mol,85.64 ± 0.5 °C
CCCCCCCC[n+]1csc2ccccc21.F[P-](F)(F)(F)(F)F [N-octylbenzothiazolium hexafluorophosphate],3.59 ± 0.12 kcal/mol,61.07 ± 0.5 °C
CCCCC[n+]1csc2ccccc21.F[P-](F)(F)(F)(F)F [N-pentylbenzothiazolium hexafluorophosphate],7.22 ± 0.215 kcal/mol,139.11 ± 0.5 °C
